In patent publication US20160100579A1, “NEMATICIDAL N-(2-SUBSTITUTED 2-PHENYLETHYL)CARBOXAMIDES AND N-(2-SUBSTITUTED 2-PHENYLETHYL)-THIOCARBOXAMIDES” (priority 2013, published 2016):
Read-outs that look alike come from different tables or passages of the source.

Tests used:
Cooperia curticei = type: in vivo; details: after 5 days, 100% = all larvae killed
Experimental: Cooperia curticei—Test (COOPCU)
(§1) Solvent: dimethyl sulfoxide
(§2) To produce a suitable preparation of active compound, 10 mg of active compound are dissolved in 0.5 ml solvent, and the concentrate is diluted with “Ringer's solution” to the desired concentration.
Approximately 40 nematode larvae (Cooperia curticei) are transferred into a test tube containing the compound solution.
After 5 days percentage of larval mortality is recorded. 100% efficacy means all larvae are killed; 0% efficacy means no larvae are killed.

Haemonchus contortus = Haemonchus contortus - Test (HAEMCO); type: in vivo; details: after 5 days, 100% = all larvae killed
Experimental: Haemonchus contortus—Test (HAEMCO)
as §1, §2
Approximately 40 larvae of the red stomach worm (Haemonchus contortus) are transferred into a test tube containing compound solution.
After 5 days percentage of larval mortality is recorded. 100% efficacy means all larvae are killed, 0% efficacy means no larvae are killed.

[1] = Measurement of log P values by HPLC on reversed phase columns (EEC directive 79/831 Annex V.A8; methods [a] pH 2.3, [b] pH 2.7, [c] pH 7.8); type: physicochemical; details: for chromatographic logP: reversed phase HPLC column
Experimental: Measurement of log P-values:
Measurement of log P values was performed according EEC directive 79/831 Annex V.A8 by HPLC (High Performance Liquid Chromatography) on reversed phase columns with the following methods:
^[a] Measurement was done at pH 2.3 with 0.1% phosphoric acid and acetonitrile as eluent with a linear gradient from 10% acetonitrile to 95% acetonitrile.
^[b] measurement of LC-MS was done at pH 2.7 with 0.1% formic acid in water and with acetonitrile (contains 0.1% formic acid) as eluent with a linear gradient from 10% acetonitrile to 95% acetonitrile.
^[c] Measurement with LC-MS was done at pH 7.8 with 0.001 molar ammonium hydrogen carbonate solution in water as eluent with a linear gradient from 10% acetonitrile to 95% acetonitrile.
Calibration was done with not branched alkan2-ones (with 3 to 16 carbon atoms) with known log P-values (measurement of log P values using retention times with linear interpolation between successive alkanones).. lambda-maX-values were determined using UV-spectra from 200 nm to 400 nm and the peak values of the chromatographic signals.

Meloidogyne incognita = Meloidogyne incognita - test (MELGIN); type: in vivo; details: 20 ppm; salad seedlings in sand; after 14 days; 100% = no galls found
Experimental: Meloidogyne incognita—test (MELGIN)
Solvent: 125.0 parts by weight of acetone
To produce a suitable preparation of active compound, 1 part by weight of active compound is mixed with the stated amount of solvent, and the concentrate is diluted with water to the desired concentration.
Vessels are filled with sand, a solution of the active ingredient, a suspension containing eggs and larvae of the southern root-knot nematode (Meloidogyne incognita) and salad seeds. The salad seeds germinate and the seedlings grow. Galls develop in the roots.
After 14 days the nematicidal activity is determined on the basis of the percentage of gall formation. 100% means that no galls were found; 0% means the number of galls found on the roots of the treated plants was equal to that in untreated control plants.

[2] = method [a]: HPLC, pH 2.3, 0.1% phosphoric acid / acetonitrile
[3] = method [b]: LC-MS, pH 2.7, 0.1% formic acid in water / acetonitrile
[4] = method [c]: LC-MS, pH 7.8, 0.001 molar ammonium hydrogen carbonate / acetonitrile
[5] = method [b]: LC-MS at pH 2.7, 0.1% formic acid in water / acetonitrile
[6] = method [c]: LC-MS at pH 7.8, 0.001 molar ammonium hydrogen carbonate in water / acetonitrile

SMILES	nematicidal activity (percentage of gall formation) (Meloidogyne incognita)	log P [1, 5]	log P [1, 6]	other results
C=CCOC(CNC(=O)c1sccc1C)c1ccc(Cl)cc1 (stereo not shown) [Compound 2]				activity (efficacy: larval mortality) (Cooperia curticei; 20 ppm): 100%; activity (efficacy: larval mortality) (Haemonchus contortus; 20 ppm): 90%
Cc1ccsc1C(=O)NCC(OCC1CC1)c1ccc(Cl)cc1 (stereo not shown) [Compound 6]				logP [1, 2]: 3.87^[a]; activity (efficacy: larval mortality) (Cooperia curticei; 100 ppm): 90%
C=CCOC(CNC(=O)c1cccnc1Cl)c1ccc(Cl)cc1 (stereo not shown) [Compound 8]				activity (efficacy: larval mortality) (Cooperia curticei; 20 ppm): 80%
COC(c1ccc(Cl)cc1Cl)C(C)NC(=O)c1cn(C)nc1C(F)F (stereo not shown) [Compound 12]	100%			activity (efficacy: larval mortality) (Haemonchus contortus; 100 ppm): 90%
COC(CNC(=O)c1cn(C)nc1C(F)F)c1cc(Cl)cc(Cl)c1 (stereo not shown) [Compound 25]	90%			
COC(c1ccc(Cl)cc1Cl)C(C)NC(=O)c1ccccc1Cl (stereo not shown) [Compound 30]	100%			activity (efficacy: larval mortality) (Haemonchus contortus; 100 ppm): 100%
COC(c1ccc(Cl)cc1Cl)C(C)NC(=O)c1ccccc1C(F)(F)F (stereo not shown) [Compound 35]	90%			logP [1, 2]: 3.90^[a]; activity (efficacy: larval mortality) (Haemonchus contortus; 100 ppm): 100%
COC(c1ccc(Cl)cc1Cl)C(C)NC(=O)c1cccnc1C(F)(F)F (stereo not shown) [Compound 39]	90%			activity (efficacy: larval mortality) (Haemonchus contortus; 100 ppm): 100%
COC(c1ccc(Cl)cc1)C(C)NC(=O)c1ccoc1I (stereo not shown) [Compound 64]				logP [1, 3]: 3.28^[b]; activity (efficacy: larval mortality) (Cooperia curticei; 20 ppm): 80%; activity (efficacy: larval mortality) (Haemonchus contortus; 20 ppm): 100%
COC(c1ccc(Cl)cc1)C(C)NC(=O)c1sccc1Br (stereo not shown) [Compound 65]				logP [1, 3]: 3.89^[b]; logP [1, 4]: 3.83^[c];; activity (efficacy: larval mortality) (Cooperia curticei; 100 ppm): 80%; activity (efficacy: larval mortality) (Haemonchus contortus; 100 ppm): 100%
COC(CNC(=O)c1sccc1Cl)c1ccc(Cl)cc1 (stereo not shown) [Compound 69]				logP [1, 3]: 3.41^[b]; logP [1, 4]: 3.39^[c];; activity (efficacy: larval mortality) (Cooperia curticei; 100 ppm): 90%; activity (efficacy: larval mortality) (Haemonchus contortus; 100 ppm): 90%
COC(c1ccc(Cl)cc1Cl)C1(NC(=O)c2cccnc2Cl)CC1 (stereo not shown) [Compound 98]				logP [1, 3]: 3.00^[b]; activity (efficacy: larval mortality) (Haemonchus contortus; 20 ppm): 80%
COC(c1ccc(Cl)cc1Cl)C1(NC(=O)c2nccnc2C(F)(F)F)CC1 (stereo not shown) [Compound 99]				logP [1, 3]: 3.61^[b]; activity (efficacy: larval mortality) (Cooperia curticei; 20 ppm): 100%
COC(c1ccc(Cl)cc1Cl)C1(NC(=O)c2cccnc2C(F)(F)F)CC1 (stereo not shown) [Compound 100]	90%			logP [1, 3]: 3.37^[b]
COC(CNC(=O)c1cccnc1C(F)(F)F)c1ccc(Cl)cc1Cl (stereo not shown) [Compound 104]	90%			logP [1, 3]: 3.11^[b]
CCOC(c1ccc(Cl)cc1Cl)C(C)NC(=O)c1cccnc1C(F)F (stereo not shown) [Compound 105]	90%			logP [1, 3]: 3.57^[b]
CCOC(c1ccc(Cl)cc1Cl)C(C)NC(=O)c1cccnc1Cl (stereo not shown) [Compound 106]	90%			logP [1, 3]: 3.59^[b]
CCOC(c1ccc(Cl)cc1Cl)C(C)NC(=O)c1cccnc1C(F)(F)F (stereo not shown) [Compound 108]	100%			logP [1, 3]: 3.92^[b]

SMILES	nematicidal activity (percentage of gall formation) (Meloidogyne incognita)	log P [1, 5]	log P [1, 6]	other results
COC(CNC(=O)c1nccnc1C(F)(F)F)c1cc(Cl)cc(Cl)c1 (stereo not shown) [Compound 120]		3.42^[b]		activity (efficacy: larval mortality) (Haemonchus contortus; 20 ppm): 80%
COC(c1ccc(Cl)cc1Cl)C(C)NC(=O)c1ccnn1C(F)F (stereo not shown) [Compound 123]		3.09^[b]		activity (efficacy: larval mortality) (Haemonchus contortus; 20 ppm): 100%
COC(c1ccc(Cl)cc1)C(C)NC(=O)c1ccccc1C(F)(F)F (stereo not shown) [Compound 128]		3.45^[b]	3.35^[c];	activity (efficacy: larval mortality) (Cooperia curticei; 20 ppm): 80%; activity (efficacy: larval mortality) (Haemonchus contortus; 20 ppm): 90%
COC(c1ccc(Cl)cc1)C(C)NC(=O)c1ccccc1C (stereo not shown) [Compound 129]		3.30^[b]	3.20^[c];	activity (efficacy: larval mortality) (Haemonchus contortus; 20 ppm): 80%
COC(c1ccc(Cl)cc1)C(C)NC(=O)c1ccccc1Cl (stereo not shown) [Compound 130]			3.21^[c]	activity (efficacy: larval mortality) (Cooperia curticei; 20 ppm): 80%; activity (efficacy: larval mortality) (Haemonchus contortus; 20 ppm): 80%
COC(c1ccc(Cl)cc1)C(C)NC(=O)c1ccccc1Br (stereo not shown) [Compound 131]		3.29^[b]	3.30^[c];	activity (efficacy: larval mortality) (Haemonchus contortus; 20 ppm): 90%
COC(c1ccc(Cl)cc1)C(C)NC(=O)c1ccccc1C(F)F (stereo not shown) [Compound 136]		3.46^[b]	3.42^[c];	activity (efficacy: larval mortality) (Haemonchus contortus; 20 ppm): 80%
COC(c1ccccc1Cl)C(C)NC(=O)c1ccccc1C(F)F (stereo not shown) [Compound 140]	90%	3.42^[b]	3.39^[c];	
COC(c1ccccc1Cl)C(C)NC(=O)c1c(F)cccc1C(F)(F)F (stereo not shown) [Compound 141]	90%	3.52^[b]	3.50^[c];	
COC(c1ccccc1Cl)C(C)NC(=O)c1ccccc1Br (stereo not shown) [Compound 142]	90%	3.34^[b]	3.31^[c];	
COC(c1ccccc1Cl)C(C)NC(=O)c1cccnc1Cl (stereo not shown) [Compound 143]	90%	2.55^[b]	2.53^[c];	
COC(c1ccccc1Cl)C(C)NC(=O)c1c(F)cccc1F (stereo not shown) [Compound 144]	90%	3.11^[b]	3.08^[c];	
COC(c1ccccc1Cl)C(C)NC(=O)c1ccccc1Cl (stereo not shown) [Compound 156]	90%	3.74^[b]	3.26^[c];	
COC(c1ccc(F)cc1)C(C)NC(=O)c1ccccc1Cl (stereo not shown) [Compound 191]	90%	3.02^[b]	2.95^[c];	
CCOC(c1ccc(Cl)cc1Cl)C(C)NC(=O)c1ccccc1C(F)(F)F (stereo not shown) [Compound 194]	90%	4.50[b]	4.44^[c];	
COC(c1ccccc1Cl)C(C)NC(=O)c1cccnc1C(F)(F)F (stereo not shown) [Compound 209]		3.27^[b]	3.24^[c];	activity (efficacy: larval mortality) (Cooperia curticei; 20 ppm): 90%
COC(c1ccc(Cl)cc1Cl)C1(NC(=O)c2nccnc2Cl)CC1 (stereo not shown) [Compound 210, 3-chloro-N-{1-[(2,4-dichlorophenyl)(methoxy)methyl]cyclopropyl}pyrazine-2-carboxamide]	100%			chromatographic logP ([1]; acid HPLC method, reversed phase, read-out: Log P acid): 3.24; chromatographic logP ([1]; method [b]: LC-MS at pH 2.7, 0.1% formic acid in water / acetonitrile, read-out: log P): 3.24; chromatographic logP ([1]; method [c]: LC-MS at pH 7.8, 0.001 molar ammonium hydrogen carbonate in water / acetonitrile, read-out: log P): 3.19
COC(c1ccccc1Cl)C(C)NC(=O)c1nccnc1Cl (stereo not shown) [Compound 213]	100%	2.76^[b]	2.73^[c];	
